Laboratory results reported in patent publication US9670482B2, “Multispecific peptides” (BICYCLE THERAPEUTICS LIMITED, priority 2009, dated 2017).
Residues, ends and D or L forms follow the SMILES beside them.

Key:
Format in all cases: in vitro ADME
Chymotrypsin = assay: Peptide conjugate digestion with Chymotrypsin; details: 37° C. for 1 hr
Protocol: (§1) Linear peptides (PK15 and CG4L1-PK15L1) were first treated with iodoacetamide prior to digestion studies. The peptides (ca 3-4 mg) were purified by HPLC (semi-prep Proteo column as described in general methods), and the HPLC fraction (ca 3 ml) was neutralised with an equal volume of 50 mM ammonium bicarbonate. […] The reaction mixture was concentrated (rotary evaporator) and re-purified by HPLC as above.
(§2) Peptides (linear and conjugates) were dissolved in water at a concentration of 1 mg/ml, giving an effective concentration of −0.5 mM stock solutions. 2 μl of peptide conjugates (˜30 μM in reactions depending on actual molecular weight) where dissolved in reaction buffer (see below) in a total reaction volume of 30 μl, followed by the protease, and samples were incubated at 37° C. for 1 hr. 10 μl aliquots were quenched into 20 μl of 10% dichloroacetic acid in MeCN/H2O (1:1) and stored at −20° C. for 30 minutes, centrifuged at 4° C. (13000 rpm) for 5 minutes and then spotted onto MALDI-TOF mass spectrometer plate for analysis.
(§3) All reactions at 37° C. Cathepsin G and kalikrein reactions were carried out in 10 mM Tris pH 7.4, 150 mM NaCl, 10 mM MgCl2, 1 mM CaCl2, 0.1% BSA, 0.01% Triton X100, 5% DMSO. Chymotrypsin reactions were carried out in 100 mM Tris pH 7.4, 10 mM CaCl2. Pronase and proteinase K reactions were carried out in 100 mM Tris pH 7.4, 0.5% SDS. Subtilisin reactions were carried out in 50 mM KH2PO4 pH 7.5. Trypsin reactions were carried out in 67 mM sodium phosphate pH 7.6. Reaction conditions with serum involve dissolving the peptide in 1×PBS (total volume 24 μl) and 6 μl of human serum added to the reaction.

Kalikrein = Kalikrein (Homo sapiens, UniProt P03952); assay: Peptide conjugate digestion with Kalikrein; design: digestion with Kalikrein: key to the marks not given beside the values; details: for digestion with Kalikrein: 37° C. for 1 hr
Sequence of Kalikrein (P03952 20-638): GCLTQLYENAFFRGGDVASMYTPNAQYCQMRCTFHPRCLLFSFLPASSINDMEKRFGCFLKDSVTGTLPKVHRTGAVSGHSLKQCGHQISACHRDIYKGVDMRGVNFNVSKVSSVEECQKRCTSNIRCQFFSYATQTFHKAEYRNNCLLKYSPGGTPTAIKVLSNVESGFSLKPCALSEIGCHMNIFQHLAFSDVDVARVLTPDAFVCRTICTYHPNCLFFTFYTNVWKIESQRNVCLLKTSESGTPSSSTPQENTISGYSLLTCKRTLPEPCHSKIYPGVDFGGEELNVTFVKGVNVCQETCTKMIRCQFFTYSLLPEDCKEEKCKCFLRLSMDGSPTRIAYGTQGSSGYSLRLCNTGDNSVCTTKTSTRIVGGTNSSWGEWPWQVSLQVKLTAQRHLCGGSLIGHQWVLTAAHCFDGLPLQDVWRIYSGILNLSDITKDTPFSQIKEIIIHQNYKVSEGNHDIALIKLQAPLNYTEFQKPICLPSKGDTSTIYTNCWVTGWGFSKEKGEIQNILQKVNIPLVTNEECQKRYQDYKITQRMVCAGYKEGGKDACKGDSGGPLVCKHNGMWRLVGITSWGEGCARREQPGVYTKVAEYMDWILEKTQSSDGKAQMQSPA
Protocol: as §1, §2, §3

Cathepsin G = molecular target: T1, Cathepsin G (Homo sapiens, UniProt P08311); assay: Peptide conjugate digestion with Cathepsin G; design: key to the marks not given beside the values; details: 37° C. for 1 hr
T1 sequence (P08311 21-244): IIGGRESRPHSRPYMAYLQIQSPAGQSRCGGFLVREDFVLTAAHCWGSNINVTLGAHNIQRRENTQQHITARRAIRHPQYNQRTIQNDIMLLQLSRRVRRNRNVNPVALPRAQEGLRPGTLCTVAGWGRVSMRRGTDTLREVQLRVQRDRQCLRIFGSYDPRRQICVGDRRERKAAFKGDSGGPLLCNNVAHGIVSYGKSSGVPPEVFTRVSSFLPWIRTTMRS
Protocol: as §1, §2, §3

Trypsin = assay: Peptide conjugate digestion with Trypsin; details: 37° C. for 1 hr
Protocol: as §1, §2, §3

Subtilisin = assay: Peptide conjugate digestion with Subtilisin; details: 37° C. for 1 hr
Protocol: as §1, §2, §3

Proteinase K = Proteinase K (Parengyodontium album, UniProt P06873); assay: Peptide conjugate digestion with Proteinase K; design: key to the marks not given beside the values; details: 37° C. for 1 hr
Sequence of Proteinase K (P06873 106-384): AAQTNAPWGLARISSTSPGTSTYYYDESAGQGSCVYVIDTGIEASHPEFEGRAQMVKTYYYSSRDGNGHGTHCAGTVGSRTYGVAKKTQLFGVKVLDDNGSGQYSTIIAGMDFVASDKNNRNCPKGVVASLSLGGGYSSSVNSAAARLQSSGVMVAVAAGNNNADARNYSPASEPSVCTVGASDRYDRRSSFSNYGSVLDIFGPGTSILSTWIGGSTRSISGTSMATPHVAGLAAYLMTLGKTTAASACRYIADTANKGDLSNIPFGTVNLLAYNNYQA
Protocol: as §1, §2, §3

Resistance to serum = details: 37° C., human serum in PBS; later times not yet tested
Protocol: as §2, §3

Pronase = assay: Peptide conjugate digestion with Pronase; design: key to the marks not given beside the values; details: 37° C. for 1 hr
Protocol: as §1, §2, §3

CC(C)C[C@@H]1NC(=O)[C@H](C)NC(=O)[C@H](CCC(=O)O)NC(=O)[C@H](CC(=O)O)NC(=O)[C@H](C)NC(=O)[C@@H]2CCCN2C(=O)[C@@H]2CSCc3cc(cc(c3)CSC[C@@H](C(=O)NCC(=O)O)NC1=O)CSC[C@H](NC(=O)[C@H](C)N)C(=O)N[C@@H](CO)C(=O)N[C@@H](CC(=O)O)C(=O)N[C@@H](CCCNC(=N)N)C(=O)N[C@@H](Cc1ccccc1)C(=O)N[C@@H](CCCNC(=N)N)C(=O)N[C@@H](CC(N)=O)C(=O)N2 [PK15L1-PK15L2 bicyclic, reference compound] (HELM PEPTIDE1{A.C.S.D.R.F.R.N.C.P.A.D.E.A.L.C.G}|CHEM1{[c1c(C[*:1])cc(C[*:3])cc1C[*:2]]}$PEPTIDE1,CHEM1,2:R3-1:R1|PEPTIDE1,CHEM1,9:R3-1:R2|PEPTIDE1,CHEM1,16:R3-1:R3$$$V2.0)
at least 48 hours: time for which proteolysis in serum is resisted (Resistance to serum)
about 100 fold: factor by which the TBMB conjugate is more resistant than the linear peptide to attack by kallikrein (Kalikrein; by comparing different concentrations of enzyme)
−: digestion with Trypsin (Trypsin; 10 μg enzyme per reaction) | digestion with Subtilisin (Subtilisin; 9 μg enzyme per reaction)
+++: digestion with Chymotrypsin (Chymotrypsin; 0.01 μg enzyme per reaction) | digestion with Chymotrypsin (Chymotrypsin; 0.1 μg enzyme per reaction) | digestion with Chymotrypsin (Chymotrypsin; 1 μg enzyme per reaction) | digestion with Kalikrein (Kalikrein; 0.01 μg enzyme per reaction) | digestion with Kalikrein (Kalikrein; 0.1 μg enzyme per reaction) | digestion with Kalikrein (Kalikrein; 1 μg enzyme per reaction) | digestion with Cathepsin G (Cathepsin G; 0.01 μg enzyme per reaction) | digestion with Cathepsin G (Cathepsin G; 0.1 μg enzyme per reaction) | digestion with Trypsin (Trypsin; 0.01 μg enzyme per reaction) | digestion with Subtilisin (Subtilisin; 0.009 μg enzyme per reaction) | digestion with Proteinase K (Proteinase K; 0.01 μg enzyme per reaction) | digestion with Proteinase K (Proteinase K; 0.1 μg enzyme per reaction) | digestion with Proteinase K (Proteinase K; 1 μg enzyme per reaction) | digestion with Pronase (Pronase; 0.01 μg enzyme per reaction) | digestion with Pronase (Pronase; 0.1 μg enzyme per reaction)
